This is an account of results in US10669285B2, “Condensed [1,4] diazepine compounds as autotaxin (ATX) and lysophosphatidic acid (LPA) production inhibitors” (Hoffmann-La Roche Inc., priority 2014, dated 2020).

This assay concerns the target ATX (human His-tagged) (Homo sapiens (Human), UniProt Q13822). The assay is described as follows: Human ATX enzyme inhibition assay (fluorescence quenching, MR121 substrate). The settings on record: inhibitory activity against ATX; 30 nM ATX, 1 μM MR121 substrate, 30° C. The class given is biochemical. As for the experimental part: Human ATX Enzyme Inhibition Assay
ATX inhibition was measured by a fluorescence quenching assay using a specifically labeled substrate analogue (MR121 substrate). To obtain this MR121 substrate, BOC and TBS protected 6-amino-hexanoic acid (R)-3-({2-[3-(2-{2-[2-(2-amino-ethoxy)-ethoxy]-ethoxy}-ethoxy)-propionylamino]-ethoxy}-hydroxy-phosphoryloxy)-2-hydroxy-propyl ester (Ferguson et al., Org Lett 2006, 8 (10), 2023) was labeled with MR121 fluorophore (CAS 185308-24-1, 1-(3-carboxypropyl)-11-ethyl-1,2,3,4,8,9,10,11-octahydro-dipyrido[3,2-b:2′,3′-i]phenoxazin-13-ium) on the free amine of the ethanolamine side and then, after deprotection, subsequently with tryptophan on the side of the aminohexanoic acid.
Assay working solutions were made as follows:
Assay buffer (50 mM Tris-HCl, 140 mM NaCl, 5 mM KCl, 1 mM CaCl2, 1 mM MgCl2, 0.01% Triton-X-100, pH 8.0;
ATX solution: ATX (human His-tagged) stock solution (1.08 mg/mL in 20 mM bicine, pH 8.5, 0.15 M NaCl, 10% glycerol, 0.3% CHAPS, 0.02% NaN3), diluted to 1.4-2.5× final concentration in assay buffer;
MR121 substrate solution: MR121 substrate stock solution (800 μM MR121 substrate in DMSO), diluted to 2-5× final concentration in assay buffer.
Test compounds (10 mM stock in DMSO, 8 μL) were obtained in 384 well sample plates (Corning Costar #3655) and diluted with 8 μL DMSO. Row-wise serial dilutions were made by transferring 8 μL cpd solution to the next row up to […]. The compound and control solutions were mixed five times and 2 μL were transferred to 384 well assay plates (Corning Costar #3702). Then, 15 μL of 41.7 nM ATX solution was added (30 nM final concentration), mixed five times and then incubated for 15 minutes at 30° C. 10 μL of MR121 substrate solution was added (1 μM final concentration), mixed 30 times and then incubated for 15 minutes at 30° C. Fluorescence was then measured every 2 minutes for 1 hour (Perkin Elmer plate: vision multimode reader); light intensity: 2.5%; exp. time: 1.4 sec, Filter: Fluo_630/690 nm) and IC50 values were calculated from these readouts.
In turn, `COc1ccc(COC(=O)N2CCc3cc(C(=O)N4CCc5[nH]nnc5C4)nn3CC2)c(C)c1` [Example 33, 4-methoxy-2-methylbenzyl 2-(4,5,6,7-tetrahydro-1H-[1,2,3]triazolo[4,5-c]pyridine-5-carbonyl)-7,8-dihydro-4H-pyrazolo[1,5-d][1,4]diazepine-6(5H)-carboxylate] displayed an IC50 of 94 nM.
`O=C(OCc1cccc(F)c1)N1CCc2cc(C(=O)N3CCc4[nH]nnc4C3)nn2CC1` [Example 29, 3-fluorobenzyl 2-(4,5,6,7-tetrahydro-1H-[1,2,3]triazolo[4,5-c]pyridine-5-carbonyl)-7,8-dihydro-4H-pyrazolo[1,5-d][1,4]diazepine-6(5H)-carboxylate] displayed an IC50 of 38 nM.
Compound `O=C(OCc1ccccc1)N1CCc2nc(C(=O)N3CCc4[nH]nnc4C3)cn2CC1` [Example 2, Benzyl 2-(1,4,6,7-tetrahydrotriazolo[4,5-c]pyridine-5-carbonyl)-5,6,8,9-tetrahydroimidazo[1,2-d][1,4]diazepine-7-carboxylate] came in with an IC50 of 2010 nM.
To `O=C(OCc1ccc(OC(F)(F)F)cc1)N1CCc2cc(C(=O)N3CCc4[nH]nnc4C3)nn2CC1` [Example 5, [4-(Trifluoromethoxy)phenyl]methyl 2-(1,4,6,7-tetrahydrotriazolo[4,5-c]pyridine-5-carbonyl)-4,5,7,8-tetrahydropyrazolo[1,5-d][1,4]diazepine-6-carboxylate] belongs 2 nM.
To `O=C(OCc1ccc(OC(F)(F)F)c(F)c1)N1CCc2cc(C(=O)N3CCc4[nH]nnc4C3)nn2CC1` [Example 3, [3-Fluoro-4-(trifluoromethoxy)phenyl]methyl 2-(1,4,6,7-tetrahydrotriazolo[4,5-c]pyridine-5-carbonyl)-4,5,7,8-tetrahydropyrazolo[1,5-d][1,4]diazepine-6-carboxylate] belongs 18 nM.
Regarding `O=C(CCc1ccc(OC(F)(F)F)c(F)c1)N1CCc2nc(C(=O)N3CCc4[nH]nnc4C3)nn2CC1` [Example 21, 3-[3-fluoro-4-(trifluoromethoxy)phenyl]-1-[2-(1,4,6,7-tetrahydrotriazolo[4,5-c]pyridine-5-carbonyl)-5,6,8,9-tetrahydro-[1,2,4]triazolo[1,5-d][1,4]diazepin-7-yl]propan-1-one], the IC50 was found to be 17 nM.
To `CC(C)(C)C(=O)Nc1cc(C#N)ccc1COC(=O)N1CCc2cc(C(=O)N3CCc4[nH]nnc4C3)nn2CC1` [Example 10, [4-Cyano-2-(2,2-dimethylpropanoylamino)phenyl]methyl 2-(1,4,6,7-tetrahydrotriazolo[4,5-c]pyridine-5-carbonyl)-4,5,7,8-tetrahydropyrazolo[1,5-d][1,4]diazepine-6-carboxylate] belongs 18 nM; to `O=C(OCc1ccc(F)cc1)N1CCc2cc(C(=O)N3CCc4[nH]nnc4C3)nn2CC1` [Example 28, 4-fluorobenzyl 2-(4,5,6,7-tetrahydro-1H-[1,2,3]triazolo[4,5-c]pyridine-5-carbonyl)-7,8-dihydro-4H-pyrazolo[1,5-d][1,4]diazepine-6(5H)-carboxylate], 76 nM; to `COc1cc(OC(F)(F)F)ccc1COC(=O)N1CCc2cc(C(=O)N3CCc4[nH]nnc4C3)nn2CC1` [Example 38, 2-methoxy-4-(trifluoromethoxy)benzyl 2-(4,5,6,7-tetrahydro-1H-[1,2,3]triazolo[4,5-c]pyridine-5-carbonyl)-7,8-dihydro-4H-pyrazolo[1,5-d][1,4]diazepine-6(5H)-carboxylate], 21 nM.
To `CC(C)(C)C(=O)Nc1cc(C#N)ccc1COC(=O)N1CCc2nc(C(=O)N3CCc4[nH]nnc4C3)nn2CC1` [Example 12, [4-Cyano-2-(2,2-dimethylpropanoylamino)phenyl]methyl 2-(1,4,6,7-tetrahydrotriazolo[4,5-c]pyridine-5-carbonyl)-5,6,8,9-tetrahydro-[1,2,4]triazolo[1,5-d][1,4]diazepine-7-carboxylate] belongs 67 nM; to `O=C(OCc1ccc(OC(F)(F)F)cc1F)N1CCc2nc(C(=O)N3CCc4[nH]nnc4C3)nn2CC1` [Example 35, [2-fluoro-4-(trifluoromethoxy)phenyl]methyl 2-(1,4,6,7-tetrahydrotriazolo[4,5-c]pyridine-5-carbonyl)-5,6,8,9-tetrahydro-[1,2,4]triazolo[1,5-d][1,4]diazepine-7-carboxylate], 13 nM.
Compound `O=C(OCc1ccc(C2CC2)cc1)N1CCc2cc(C(=O)N3CCc4[nH]nnc4C3)nn2CC1` [Example 34, 4-cyclopropylbenzyl 2-(4,5,6,7-tetrahydro-1H-[1,2,3]triazolo[4,5-c]pyridine-5-carbonyl)-7,8-dihydro-4H-pyrazolo[1,5-d][1,4]diazepine-6(5H)-carboxylate] registered an IC50 of 7 nM.
To `N#Cc1ccc(COC(=O)N2CCc3cc(C(=O)N4CCc5[nH]nnc5C4)nn3CC2)cc1` [Example 6, 4-Cyanobenzyl 2-(4,5,6,7-tetrahydro-1H-[1,2,3]triazolo[4,5-c]pyridine-5-carbonyl)-7,8-dihydro-4H-pyrazolo[1,5-d][1,4]diazepine-6(5H)-carboxylate] belongs 4 nM; to `CCc1cc(C#N)ccc1OCC(=O)N1CCc2cc(C(=O)N3CCc4[nH]nnc4C3)nn2CC1` [Example 16, 3-Ethyl-4-(2-oxo-2-(2-(4,5,6,7-tetrahydro-1H-[1,2,3]triazolo[4,5-c]pyridine-5-carbonyl)-7,8-dihydro-4H-pyrazolo[1,5-d][1,4]diazepin-6(5H)-yl)ethoxy)benzonitrile], 12 nM.
To `O=C(OCc1ccc(OC(F)(F)F)cc1)N1CCc2nc(C(=O)N3CCc4[nH]nnc4C3)cn2CC1` [Example 13, [4-(Trifluoromethoxy)phenyl]methyl 2-(1,4,6,7-tetrahydrotriazolo[4,5-c]pyridine-5-carbonyl)-5,6,8,9-tetrahydroimidazo[1,2-d][1,4]diazepine-7-carboxylate] belongs 17 nM; to `O=C(CCc1ccc(OC(F)(F)F)cc1)N1CCc2nc(C(=O)N3CCc4[nH]nnc4C3)nn2CC1` [Example 20, 1-[2-(1,4,6,7-tetrahydrotriazolo[4,5-c]pyridine-5-carbonyl)-5,6,8,9-tetrahydro-[1,2,4]triazolo[1,5-d][1,4]diazepin-7-yl]-3-[4-(trifluoromethoxy)phenyl]propan-1-one], 6 nM; to `O=C(OCc1ccc(OC(F)(F)F)c(Cl)c1)N1CCc2cc(C(=O)N3CCc4[nH]nnc4C3)nn2CC1` [Example 37, 3-chloro-4-(trifluoromethoxy)benzyl 2-(4,5,6,7-tetrahydro-1H-[1,2,3]triazolo[4,5-c]pyridine-5-carbonyl)-7,8-dihydro-4H-pyrazolo[1,5-d][1,4]diazepine-6(5H)-carboxylate], 9 nM.
Compound `O=C(OCc1ccc(OC(F)(F)F)c(Cl)c1)N1CCc2nc(C(=O)N3CCc4[nH]nnc4C3)cn2CC1` [Example 42, [3-chloro-4-(trifluoromethoxy)phenyl]methyl 2-(1,4,6,7-tetrahydrotriazolo[4,5-c]pyridine-5-carbonyl)-5,6,8,9-tetrahydroimidazo[1,2-d][1,4]diazepine-7-carboxylate] displayed an IC50 of 7 nM.

As usually defined, the IC50 is the midpoint of a concentration-inhibition curve.
